Assay results taken from the supplement of paper PMC10307832.

Experiments:
Experiment in all cases: relative viability (nuclei count vs DMSO), 5 days (fraction); higher = more cells survive
NCI-H2405 = tested on: NCI-H2405
Summary of the method: (§1)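 Lung cancer cell lines were seeded in 1536-well plates and dosed by pin tool the next day, with either a single drug or a fixed anchor-drug dose combined with five library-drug doses (not always all listed) spaced in √10 steps. Five days later, one step fixed the cells and stained their nuclei (final 0.05% Triton X-100, 1% formaldehyde, 1 ug/ml Hoechst), and nuclei were counted on 4× images. Relative viability is the nuclei count in treated wells divided by the count in vehicle wells, and each value is the median of duplicate plates.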

NCI-H1650 = tested on: NCI-H1650
Summary of the method: as §1

NCI-H520 = tested on: NCI-H520
Summary of the method: as §1

H3255 = tested on: H3255
Summary of the method: as §1

NCI-H1651 = tested on: NCI-H1651
Summary of the method: as §1

RERF-LC-KJ = tested on: RERF-LC-KJ
Summary of the method: as §1

NCI-H1355 = tested on: NCI-H1355
Summary of the method: as §1

LK-2 = tested on: LK-2
Summary of the method: as §1

PC-3 [JPC-3] = tested on: PC-3 [JPC-3]
Summary of the method: as §1

NCI-H661 = tested on: NCI-H661
Summary of the method: as §1

NCI-H1734 = tested on: NCI-H1734
Summary of the method: as §1

PC-14 = tested on: PC-14
Summary of the method: as §1

COR-L23 = tested on: COR-L23
Summary of the method: as §1

HCC-827 = tested on: HCC-827
Summary of the method: as §1

EKVX = tested on: EKVX
Summary of the method: as §1

NCI-H1437 = tested on: NCI-H1437
Summary of the method: as §1

SW 1573 = tested on: SW 1573
Summary of the method: as §1

NCI-H2228 = tested on: NCI-H2228
Summary of the method: as §1

SK-MES-1 = tested on: SK-MES-1
Summary of the method: as §1

HCC-15 = tested on: HCC-15
Summary of the method: as §1

NCI-H322M = tested on: NCI-H322M
Summary of the method: as §1

NCI-H1563 = tested on: NCI-H1563
Summary of the method: as §1

CAL-12T = tested on: CAL-12T
Summary of the method: as §1

ABC-1 = tested on: ABC-1
Summary of the method: as §1

Work on `CC(C)Oc1cc(Nc2nc(N[C@@H](C)c3ccc(F)cn3)ncc2Cl)n[nH]1` [AZ23] + Nc1nc2[nH]cc(CCc3ccc(C(=O)N[C@@H](CCC(=O)O)C(=O)O)cc3)c2c(=O)[nH]1 [Pemetrexed] (partner 0.2 µM) yielded a relative viability (NCI-H2405; first compound 0.01 µM) of 1.02, a relative viability (NCI-H2405; first compound 0.03162 µM) of 1.04 and a relative viability (NCI-H2405; first compound 0.3162 µM) of 0.879. The relative viability (NCI-H1650; first compound 0.01 µM) was 0.295, the relative viability (NCI-H1650; first compound 0.03162 µM) was 0.406 and the relative viability (NCI-H1650; first compound 0.3162 µM) was 0.359. The relative viability (NCI-H520; first compound 0.01 µM) was 0.678, the relative viability (NCI-H520; first compound 0.03162 µM) was 0.759 and the relative viability (NCI-H520; first compound 0.3162 µM) was 0.615. For the same molecule, the relative viability (H3255; first compound 0.01 µM) was 0.536, the relative viability (H3255; first compound 0.03162 µM) was 0.603 and the relative viability (H3255; first compound 0.3162 µM) was 0.577. For the same molecule, the relative viability (NCI-H1651; first compound 0.01 µM) was 0.349, the relative viability (NCI-H1651; first compound 0.03162 µM) was 0.597 and the relative viability (NCI-H1651; first compound 0.3162 µM) was 0.615. For the same molecule, the relative viability (RERF-LC-KJ; first compound 0.01 µM) was 0.493, the relative viability (RERF-LC-KJ; first compound 0.03162 µM) was 0.463 and the relative viability (RERF-LC-KJ; first compound 0.3162 µM) was 0.495. It also gave a relative viability (NCI-H1355; first compound 0.01 µM) of 1.13, a relative viability (NCI-H1355; first compound 0.03162 µM) of 1.11 and a relative viability (NCI-H1355; first compound 0.3162 µM) of 1.05. The relative viability (LK-2; first compound 0.03162 µM) was 0.36, the relative viability (LK-2; first compound 0.3162 µM) was 0.263 and the relative viability (PC-3 [JPC-3]; first compound 0.01 µM) was 0.955. It also gave a relative viability (PC-3 [JPC-3]; first compound 0.03162 µM) of 1.25, a relative viability (PC-3 [JPC-3]; first compound 0.3162 µM) of 1.22 and a relative viability (NCI-H661; first compound 0.01 µM) of 0.864. The relative viability (NCI-H661; first compound 0.03162 µM) was 0.925, the relative viability (NCI-H661; first compound 0.3162 µM) was 0.927 and the relative viability (NCI-H1734; first compound 0.01 µM) was 0.358. For the same molecule, the relative viability (NCI-H1734; first compound 0.03162 µM) was 0.454, the relative viability (NCI-H1734; first compound 0.3162 µM) was 0.41 and the relative viability (PC-14; first compound 0.01 µM) was 0.127. It also gave a relative viability (PC-14; first compound 0.03162 µM) of 0.136, a relative viability (PC-14; first compound 0.3162 µM) of 0.147 and a relative viability (COR-L23; first compound 0.01 µM) of 0.172. For the same molecule, the relative viability (COR-L23; first compound 0.03162 µM) was 0.193, the relative viability (COR-L23; first compound 0.3162 µM) was 0.189 and the relative viability (HCC-827; first compound 0.01 µM) was 0.2. The relative viability (HCC-827; first compound 0.03162 µM) was 0.27, the relative viability (HCC-827; first compound 0.3162 µM) was 0.242 and the relative viability (EKVX; first compound 0.01 µM) was 0.24. The relative viability (EKVX; first compound 0.03162 µM) was 0.5, the relative viability (EKVX; first compound 0.3162 µM) was 0.381 and the relative viability (NCI-H1437; first compound 0.01 µM) was 0.283. It also gave a relative viability (NCI-H1437; first compound 0.03162 µM) of 0.345, a relative viability (NCI-H1437; first compound 0.3162 µM) of 0.331 and a relative viability (SW 1573; first compound 0.01 µM) of 0.958. For the same molecule, the relative viability (SW 1573; first compound 0.03162 µM) was 0.792, the relative viability (SW 1573; first compound 0.3162 µM) was 0.849 and the relative viability (NCI-H2228; first compound 0.01 µM) was 0.301. The relative viability (NCI-H2228; first compound 0.03162 µM) was 0.407, the relative viability (NCI-H2228; first compound 0.3162 µM) was 0.354 and the relative viability (SK-MES-1; first compound 0.03162 µM) was 1.03. It also gave a relative viability (SK-MES-1; first compound 0.3162 µM) of 1.03, a relative viability (HCC-15; first compound 0.01 µM) of 0.204 and a relative viability (HCC-15; first compound 0.03162 µM) of 0.222. It also gave a relative viability (HCC-15; first compound 0.3162 µM) of 0.208, a relative viability (NCI-H322M; first compound 0.01 µM) of 0.536 and a relative viability (NCI-H322M; first compound 0.03162 µM) of 0.617. For the same molecule, the relative viability (NCI-H322M; first compound 0.3162 µM) was 0.689, the relative viability (NCI-H1563; first compound 0.01 µM) was 0.69 and the relative viability (NCI-H1563; first compound 0.03162 µM) was 0.934. For the same molecule, the relative viability (NCI-H1563; first compound 0.3162 µM) was 0.885, the relative viability (CAL-12T; first compound 0.03162 µM) was 1.24 and the relative viability (CAL-12T; first compound 0.3162 µM) was 1.23.

For `CC(C)Oc1cc(Nc2nc(N[C@@H](C)c3ccc(F)cn3)ncc2Cl)n[nH]1` [AZ23] + Cc1cc(Nc2cc(N3CCN(C)CC3)nc(Sc3ccc(NC(=O)C4CC4)cc3)n2)n[nH]1 [Tozasertib] (partner 0.1 µM), the relative viability (NCI-H2405; first compound 0.01 µM) was 0.709, the relative viability (NCI-H2405; first compound 0.03162 µM) was 0.774 and the relative viability (NCI-H2405; first compound 0.3162 µM) was 0.808. It also gave a relative viability (NCI-H1650; first compound 0.03162 µM) of 0.433, a relative viability (NCI-H1650; first compound 0.3162 µM) of 0.45 and a relative viability (NCI-H520; first compound 0.01 µM) of 0.455. The relative viability (NCI-H520; first compound 0.03162 µM) was 0.485, the relative viability (NCI-H520; first compound 0.3162 µM) was 0.475 and the relative viability (H3255; first compound 0.01 µM) was 0.662. The relative viability (H3255; first compound 0.03162 µM) was 0.821, the relative viability (H3255; first compound 0.3162 µM) was 0.675 and the relative viability (NCI-H1651; first compound 0.03162 µM) was 0.885. For the same molecule, the relative viability (NCI-H1651; first compound 0.3162 µM) was 0.71, the relative viability (RERF-LC-KJ; first compound 0.01 µM) was 0.532 and the relative viability (RERF-LC-KJ; first compound 0.03162 µM) was 0.569. It also gave a relative viability (RERF-LC-KJ; first compound 0.3162 µM) of 0.572, a relative viability (NCI-H1355; first compound 0.01 µM) of 0.507 and a relative viability (NCI-H1355; first compound 0.03162 µM) of 0.609. It also gave a relative viability (NCI-H1355; first compound 0.3162 µM) of 0.597, a relative viability (LK-2; first compound 0.01 µM) of 0.184 and a relative viability (LK-2; first compound 0.03162 µM) of 0.222. It also gave a relative viability (LK-2; first compound 0.3162 µM) of 0.195, a relative viability (PC-3 [JPC-3]; first compound 0.01 µM) of 1.03 and a relative viability (PC-3 [JPC-3]; first compound 0.03162 µM) of 0.87. The relative viability (PC-3 [JPC-3]; first compound 0.3162 µM) was 0.959, the relative viability (NCI-H661; first compound 0.01 µM) was 0.366 and the relative viability (NCI-H661; first compound 0.03162 µM) was 0.354. For the same molecule, the relative viability (NCI-H661; first compound 0.3162 µM) was 0.353, the relative viability (ABC-1; first compound 0.01 µM) was 0.192 and the relative viability (ABC-1; first compound 0.03162 µM) was 0.201. For the same molecule, the relative viability (ABC-1; first compound 0.3162 µM) was 0.195, the relative viability (NCI-H1734; first compound 0.01 µM) was 0.252 and the relative viability (NCI-H1734; first compound 0.03162 µM) was 0.289. The relative viability (NCI-H1734; first compound 0.3162 µM) was 0.276, the relative viability (PC-14; first compound 0.01 µM) was 0.428 and the relative viability (PC-14; first compound 0.03162 µM) was 0.656. The relative viability (PC-14; first compound 0.3162 µM) was 0.696, the relative viability (COR-L23; first compound 0.01 µM) was 0.135 and the relative viability (COR-L23; first compound 0.03162 µM) was 0.231. The relative viability (COR-L23; first compound 0.3162 µM) was 0.205, the relative viability (HCC-827; first compound 0.01 µM) was 0.448 and the relative viability (HCC-827; first compound 0.03162 µM) was 0.445. It also gave a relative viability (HCC-827; first compound 0.3162 µM) of 0.415, a relative viability (EKVX; first compound 0.01 µM) of 0.471 and a relative viability (EKVX; first compound 0.03162 µM) of 0.458. The relative viability (EKVX; first compound 0.3162 µM) was 0.407, the relative viability (NCI-H1437; first compound 0.01 µM) was 0.434 and the relative viability (NCI-H1437; first compound 0.03162 µM) was 0.449. It also gave a relative viability (NCI-H1437; first compound 0.3162 µM) of 0.413, a relative viability (SW 1573; first compound 0.01 µM) of 0.168 and a relative viability (SW 1573; first compound 0.03162 µM) of 0.151. The relative viability (SW 1573; first compound 0.3162 µM) was 0.17, the relative viability (NCI-H2228; first compound 0.01 µM) was 0.219 and the relative viability (NCI-H2228; first compound 0.03162 µM) was 0.247. It also gave a relative viability (NCI-H2228; first compound 0.3162 µM) of 0.265, a relative viability (SK-MES-1; first compound 0.03162 µM) of 1.1 and a relative viability (SK-MES-1; first compound 0.3162 µM) of 0.942. The relative viability (HCC-15; first compound 0.01 µM) was 0.513, the relative viability (HCC-15; first compound 0.03162 µM) was 0.498 and the relative viability (HCC-15; first compound 0.3162 µM) was 0.631. For the same molecule, the relative viability (NCI-H322M; first compound 0.03162 µM) was 0.501, the relative viability (NCI-H322M; first compound 0.3162 µM) was 0.434 and the relative viability (CAL-12T; first compound 0.03162 µM) was 0.342. It also gave a relative viability (CAL-12T; first compound 0.3162 µM) of 0.241.
